What was measured:
[1] = system: STAT-3, ERK and Akt phosphorylation in MM.1S cells; assay: Western blotting of IL-6 / IGF-1 growth signaling; format: cell-based, human; conditions: 10 ug/ml HNK for 3 and 6 h, then IL-6 (10 ng/ml) or IGF-1 (25 ng/ml)
MCF-7 cells = assay: Apoptosis analysis (annexin V and PI); format: cell-based; conditions: MCF-7, 60 μM, 24 hours (control 1%±0.5%)
Method: Apoptosis analysis: 5×10^6 cells were placed in the appropriate culture media containing 10% FCS, and treated with either control vehicle or various concentrations of HNK, as indicated for 24 h. Following treatment, cells were harvested, and stained with PI and Annexin V, using the Annexin V-PE Apoptosis Detection Kit I (BD Pharmingen, San Diego, Calif.) according to the manufacturer protocol. Flow cytometry was performed at the Flow Cytometry Core facility of Cedars-Sinai Medical Center, using FACScan (Becton Dickinson, Franklin Lakes, N.J.). For studies using z-VAD-fmk to inhibit caspase activity, 5×10^6 cells were incubated with 50 μM z-VAD-fmk for 60 minutes prior to addition of HNK.
HNK induces apoptosis in breast cancer cell lines. […] The ability of HNK to induce apoptosis and cell death in breast cancer cell lines was investigated. MCF-7 cells were treated with HNK (60 μM for six or 24 hours) and apoptosis and cell death were assessed using annexin V and PI staining (FIG. 5 A). […] Upregulation of BAX was also noticed, (85% increase at 40 μM compared to control, as analyzed by densitometry) but no significant changes in BCL-2 or BAD levels were observed. Only partial inhibition of apoptosis was observed following pretreatment with z-VAD-fmk.

COX2 promoter = assay: COX-2 promoter-dependent reporter luciferase gene expression; format: cell-based, human; conditions: 0.1 nM TNF 24 h
Method: H1299 cells were transiently transfected with a COX-2 promoter plasmid linked to the luciferase gene and then treated with the indicated concentrations of honokiol. After 24 h in culture with 0.1 nM TNF, cell supernatants were collected and assayed for luciferase activity. Results are expressed as fold activity over the activity of the vector control. Values are means ±SD (indicated as error bars) of triplicate cultures for a representative experiment out of 3 independent ones showing similar results.
COX-2 promoter-dependent reporter luciferase gene expression. COX-2 promoter activity was examined as described elsewhere (Shishodia, S., et al. 2003 Cancer Res. 63:4375-4383). To further determine the effect of honokiol on COX-2 promoter, A293 cells were seeded at a concentration of 1.5×10^5 cells per well in six-well plates. […] The COX-2 promoter (−375 to +59), which was amplified from human genomic DNA by using the primers 5′-[sequence]-3′ (sense) and 5′-[sequence]-3′ (antisense). After a 6-h exposure to the transfection mixture, the cells were incubated in medium containing honokiol for 12 h. The cells were exposed to TNF (0.1 nM) for 24 h and then harvested. Luciferase activity was measured by using the Luclite luciferase assay system (Perkin-Elmer, Boston, Mass.) according to the manufacturer's protocol and detected by luminometer (Victor 3, Perkin-Elmer).

KBM-5 cells = assay: Live and dead assay; format: cell-based, human; conditions: KBM-5, TNF 1 nM with honokiol (10 mM printed); TNF alone 5%
Method: (D) depicts that honokiol enhances TNF-induced cell death.
Live and dead assay. The Live and Dead assay (Molecular Probes), which determines intracellular esterase activity and plasma membrane integrity, was used to measure apoptosis. […] It also uses the […] (red fluorescence), which can enter cells only through damaged membranes and bind to nucleic acids but is excluded by the intact plasma membrane of live cells. Briefly, 1×10^5 cells were incubated with […] honokiol for 24 h and then treated with 1 nM TNF for 16 h at 37° C. Cells were stained with the Live and Dead reagent (5 mM ethidium homodimer, 5 mM calcein-AM) and then incubated at 37° C. for 30 min. Cells were analyzed under a fluorescence microscope (Labophot-2, Nikon, Tokyo, Japan).
By using caspase-activated PARP cleavage, it was shown that the enhanced cytotoxicity was due to apoptosis. TNF-induced PARP cleavage was enhanced in the honokiol-treated cells (FIG. 26C).

[2] = system: MCF-7 and MDA-MB-231 breast cancer cell lines; assay: MTT assay of drug combinations (additive model); format: cell-based
Method: 3-(4,5-dimethylthiazol-2-yl)-2,5-diphenyltetrazolium bromide (MTT) proliferation assays: 3×10^3 cells/well were plated in 96-well plates, cultured in the appropriate culture media containing 10% FCS, and treated with either control vehicle or various concentrations of HNK, alone or with a secondary drug, as indicated. All secondary drugs were freshly diluted in growth media and immediately added to cells along with the HNK. After 24 hours of incubation at 37° C., 5% CO2, the cells were cultured for four hours with 10% MTT reagent (5 mg/ml; Sigma-Aldrich, St. Louis, Mo.). The medium was aspirated, and the cells were dissolved by dimethyl sulfoxide (DMSO). Absorbance of the formazan product was measured by an enzyme-linked immunosorbent assay reader (Macintosh).
Model for drug interactions in vitro: The analysis of interaction between two drugs was conducted using the additive model (Xu D., et al. Cancer Lett. 2006 Jan. 7; [Electronic publication; ahead of print]; Sutherland, R. L., et al. Cancer Res. 1983 September; 43(9):3998-4006). The model predicts the effect of a combination to be equal to the product of the effect of its constituents. […] A ratio between the observed and the predicted viability by the additive model was calculated for all combinations. […]

HIF-1a in PC3 cells = assay: HIF-1a induction; format: cell-based, human; conditions: normoxia or hypoxia
Method: Bharti, A. C. et al (2004) Blood 103, 3175-3184; Arbiser, J. L et al (1998) Mol. Med. 4, 376-383; Woods, A. et al (2003) Current Biology 13, 2004-2008; Shaw, R. J. et al (2004) PNAS 101, 3329-3335; Buzzai, M. et al (2005) Oncogene 24, 4165-4173). […] PC3 cells were treated with honokiol in normoxia (left) or hypoxia (right). In both cases, HIF-1a induction is dose dependent, and in the case of hypoxia, at least additive.

C=CCc1ccc(O)c(-c2ccc(O)c(CC=C)c2)c1 [HNK, Honokiol]
phosphorylation induced by IL-6 and IGF-1 [1]: significantly reduced phosphorylation of STAT-3, ERK and Akt induced by IL-6, as well as ERK and Akt induced by IGF-1
annexin V-positive, PI-negative cells (MCF-7 cells): 16%±3%
TNF-induced COX2 promoter activity (COX2 promoter): inhibited the TNF-induced COX2 promoter activity in a dose-dependent manner
TNF-induced apoptosis (Live/Dead assay) (KBM-5 cells): 65%
interaction of HNK and SAHA (additive model) ([2]; HNK 10-50 μM with SAHA 2 μM, 24 hours): synergistic effect
interaction of HNK and the other drugs tested (additive model) ([2]; with paclitaxel 250 nM, doxorubicin 300 nM, 4-HT 100 nM): Additive effect
HIF-1a induction (HIF-1a in PC3 cells): activated HIF-1a in prostate cancer cells in a dose dependent manner

Source: US20080300298A1, “Honokiol Derivates For the Treatment of Proliferative Disorders” (priority 2005, published 2008)
